# Measurements: US11497212B2, “Substituted thiophenyl uracils, salts thereof and the use thereof as herbicidal agents” (Syngenta Crop Protection AG, priority 2017, dated 2022)
# How the values were obtained:
# Type in all cases: in vivo
# Glycine max [1] = assay: Crop compatibility pre-emergence (greenhouse pot trial); conditions: application rate 80 g/ha, effect vs untreated controls
# Text: (§1) Seeds of mono- and dicotyledonous weeds and crop plants were laid out in plastic or organic plant pots and covered with soil. The compounds of the invention formulated in the form of wettable powders (WP) or emulsion concentrates (EC) were then applied to the surface of the covering soil as an aqueous suspension or emulsion with addition of 0.5% additive at a water application rate equivalent to 600 L/ha. After the treatment, the pots were placed in a greenhouse and kept under good growth conditions for the test plants. After about 3 weeks, the efficacy of the preparations was scored visually as a percentage by comparison with untreated controls. For example, 100% efficacy=plants have died, 0% efficacy=like control plants.
# (§2) Crop compatibilities were also scored correspondingly.
# (§3) The effects observed are reported here on selected crop plants by comparison with the untreated controls (values in %).
# Zea mays [2] = assay: as above; conditions: application rate 80 g/ha, effect vs untreated controls
# Text: as §1, §2, §3
# Amaranthus retroflexus [3] = assay: Herbicidal action pre-emergence (greenhouse pot trial); conditions: application rate 320 g/ha, scored after about 3 weeks
# Text: as §1, with “control plants. Tables B1 to B16 below show the efficacies of selected compounds of the general formula (I) according to tables I.1 to I.60 on various harmful plants and an application rate corresponding to 320 g/ha or lower that were obtained by the aforementioned trial method.” for “control plants.”
# Alopecurus myosuroides [4] = assay: as above; conditions: application rate 320 g/ha, scored after about 3 weeks
# Text: as §1, with “control plants. Tables B1 to B16 below show the efficacies of selected compounds of the general formula (I) according to tables I.1 to I.60 on various harmful plants and an application rate corresponding to 320 g/ha or lower that were obtained by the aforementioned trial method.” for “control plants.”
# Stellaria media [5] = assay: as above; conditions: application rate 320 g/ha, scored after about 3 weeks
# Text: as §1, with “control plants. Tables B1 to B16 below show the efficacies of selected compounds of the general formula (I) according to tables I.1 to I.60 on various harmful plants and an application rate corresponding to 320 g/ha or lower that were obtained by the aforementioned trial method.” for “control plants.”
# Pharbitis purpurea [6] = assay: as above; conditions: application rate 320 g/ha
# Text: as §1, with “control plants. Tables B1 to B16 below show the efficacies of selected compounds of the general formula (I) according to tables I.1 to I.60 on various harmful plants and an application rate corresponding to 320 g/ha or lower that were obtained by the aforementioned trial method.” for “control plants.”
# Veronica persica [7] = assay: as above; conditions: application rate 320 g/ha
# Text: as §1, with “control plants. Tables B1 to B16 below show the efficacies of selected compounds of the general formula (I) according to tables I.1 to I.60 on various harmful plants and an application rate corresponding to 320 g/ha or lower that were obtained by the aforementioned trial method.” for “control plants.”
# Echinochloa crus-galli [8] = assay: as above; conditions: application rate 320 g/ha, scored after about 3 weeks
# Text: as §1, with “control plants. Tables B1 to B16 below show the efficacies of selected compounds of the general formula (I) according to tables I.1 to I.60 on various harmful plants and an application rate corresponding to 320 g/ha or lower that were obtained by the aforementioned trial method.” for “control plants.”
# Matricaria inodora [9] = assay: as above; conditions: application rate 320 g/ha, scored after about 3 weeks
# Text: as §1, with “control plants. Tables B1 to B16 below show the efficacies of selected compounds of the general formula (I) according to tables I.1 to I.60 on various harmful plants and an application rate corresponding to 320 g/ha or lower that were obtained by the aforementioned trial method.” for “control plants.”
# Setaria viridis [10] = assay: as above; conditions: application rate 320 g/ha, scored after about 3 weeks
# Text: as §1, with “control plants. Tables B1 to B16 below show the efficacies of selected compounds of the general formula (I) according to tables I.1 to I.60 on various harmful plants and an application rate corresponding to 320 g/ha or lower that were obtained by the aforementioned trial method.” for “control plants.”
# Abutilon theophrasti [11] = assay: as above; conditions: application rate 320 g/ha, scored after about 3 weeks
# Text: as §1, with “control plants. Tables B1 to B16 below show the efficacies of selected compounds of the general formula (I) according to tables I.1 to I.60 on various harmful plants and an application rate corresponding to 320 g/ha or lower that were obtained by the aforementioned trial method.” for “control plants.”
# Avena fatua = assay: as above; conditions: application rate 320 g/ha
# Text: as §1, with “control plants. Tables B1 to B16 below show the efficacies of selected compounds of the general formula (I) according to tables I.1 to I.60 on various harmful plants and an application rate corresponding to 320 g/ha or lower that were obtained by the aforementioned trial method.” for “control plants.”
# Lolium rigidum = assay: as above; conditions: application rate 320 g/ha
# Text: as §1, with “control plants. Tables B1 to B16 below show the efficacies of selected compounds of the general formula (I) according to tables I.1 to I.60 on various harmful plants and an application rate corresponding to 320 g/ha or lower that were obtained by the aforementioned trial method.” for “control plants.”
# Viola tricolor [12] = assay: as above; conditions: application rate 320 g/ha, scored after about 3 weeks
# Text: as §1, with “control plants. Tables B1 to B16 below show the efficacies of selected compounds of the general formula (I) according to tables I.1 to I.60 on various harmful plants and an application rate corresponding to 320 g/ha or lower that were obtained by the aforementioned trial method.” for “control plants.”
# Glycine max [13] = assay: Crop compatibility post-emergence (greenhouse pot trial)
# How it was run: (§4)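 Compatibility is expressed as visually scored percent injury, where 0% means no difference from untreated controls and 100% means dead plants, assessed about 3 weeks after a foliar spray at 600 L/ha with 0.5% additive on one-leaf-stage pot plants in sandy loam.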
# Triticum aestivum = assay: as above; conditions: application rate 20 g/ha
# How it was run: as §4
# Zea mays [14] = assay: as above; conditions: application rate 80 g/ha
# How it was run: as §4
# Oryza sativa = assay: as above; conditions: application rate 20 g/ha
# How it was run: as §4
# Pharbitis purpurea [15] = assay: Herbicidal action post-emergence (greenhouse pot trial)
# How it was run: (§5)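 Sowing in sandy loam, then 2–3 weeks of controlled greenhouse growth. Next, one-leaf-stage plants received a foliar spray of the WP- or EC-formulated compound with 0.5% additive (600 L/ha water, application rate of 80 g/ha or below). Finally, after about 3 weeks under optimal conditions, effect was judged by eye against controls.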
# Matricaria inodora [16] = assay: as above; conditions: scored visually after about 3 weeks vs untreated controls
# How it was run: as §5
# Polygonum convolvulus = assay: as above; conditions: scored visually after about 3 weeks vs untreated controls
# How it was run: as §5
# Setaria viridis [17] = assay: as above; conditions: scored visually after about 3 weeks vs untreated controls
# How it was run: as §5
# Abutilon theophrasti [18] = assay: as above; conditions: scored visually after about 3 weeks vs untreated controls
# How it was run: as §5
# Viola tricolor [19] = assay: as above
# How it was run: as §5
# Amaranthus retroflexus [20] = assay: as above; conditions: application rate 20 g/ha, scored visually after about 3 weeks vs untreated controls
# How it was run: as §5
# Stellaria media [21] = assay: as above; conditions: application rate 20 g/ha, scored visually after about 3 weeks vs untreated controls
# How it was run: as §5
# Veronica persica [22] = assay: as above; conditions: application rate 20 g/ha
# How it was run: as §5
# Echinochloa crus-galli [23] = assay: as above; conditions: application rate 20 g/ha, scored visually after about 3 weeks vs untreated controls
# How it was run: as §5
# Digitaria sanguinalis = assay: as above; conditions: application rate 20 g/ha
# How it was run: as §5
# Hordeum murinum = assay: as above; conditions: application rate 20 g/ha, scored visually after about 3 weeks vs untreated controls
# How it was run: as §5
# Alopecurus myosuroides [24] = assay: as above; conditions: application rate 20 g/ha, scored visually after about 3 weeks vs untreated controls
# How it was run: as §5
smiles,measurement,setting,value
CC(Sc1cc(-n2c(=O)cc(C(F)(F)F)n(C)c2=O)c(F)cc1Cl)C(=O)NC1(C#N)CCSC1 (stereo not drawn) [I.1-340],Glycine max (Efficacy in %),Glycine max [1],20%
same,Zea mays (Efficacy in %),Zea mays [2],0%
same,Amaranthus retroflexus (Efficacy in %),Amaranthus retroflexus [3],100%
same,Alopecurus myosuroides (Efficacy in %),Alopecurus myosuroides [4],90%
same,Stellaria media (Efficacy in %),Stellaria media [5],100%
same,Pharbitis purpurea (Efficacy in %),Pharbitis purpurea [6],100%
same,Veronica persica (Efficacy in %),Veronica persica [7],100%
same,Echinochloa crus-galli (Efficacy in %),Echinochloa crus-galli [8],100%
same,Matricaria inodora (Efficacy in %),Matricaria inodora [9],100%
same,Setaria viridis (Efficacy in %),Setaria viridis [10],100%
same,Abutilon theophrasti (Efficacy in %),Abutilon theophrasti [11],100%
same,Avena fatua (Efficacy in %),Avena fatua,80%
same,Lolium rigidum (Efficacy in %),Lolium rigidum,100%
same,Viola tricolor (Efficacy in %),Viola tricolor [12],100%
same,Glycine max (Efficacy in %),Glycine max [13]; application rate 20 g/ha,20%
same,Triticum aestivum (Efficacy in %),Triticum aestivum,20%
same,Zea mays (Efficacy in %),Zea mays [14],0%
same,Oryza sativa (Efficacy in %),Oryza sativa,10%
same,Pharbitis purpurea (Efficacy in %),Pharbitis purpurea [15]; application rate 80 g/ha,100%
same,Matricaria inodora (Efficacy in %),Matricaria inodora [16]; application rate 80 g/ha,100%
same,Polygonum convolvulus (Efficacy in %),Polygonum convolvulus; application rate 80 g/ha,100%
same,Setaria viridis (Efficacy in %),Setaria viridis [17]; application rate 80 g/ha,80%
same,Abutilon theophrasti (Efficacy in %),Abutilon theophrasti [18]; application rate 80 g/ha,100%
same,Viola tricolor (Efficacy in %),Viola tricolor [19]; application rate 80 g/ha,100%
CC(C)CC(Sc1cc(-n2c(=O)cc(C(F)(F)F)n(C)c2=O)c(F)cc1Cl)C(=O)NCC1CCCO1 (stereo not drawn) [I.4-221],Glycine max (Efficacy in %),Glycine max [13]; application rate 5 g/ha,20%
same,Amaranthus retroflexus (Efficacy in %),Amaranthus retroflexus [20],100%
same,Stellaria media (Efficacy in %),Stellaria media [21],80%
same,Pharbitis purpurea (Efficacy in %),Pharbitis purpurea [15]; application rate 20 g/ha,100%
same,Veronica persica (Efficacy in %),Veronica persica [22],100%
same,Echinochloa crus-galli (Efficacy in %),Echinochloa crus-galli [23],80%
same,Matricaria inodora (Efficacy in %),Matricaria inodora [16]; application rate 20 g/ha,100%
same,Polygonum convolvulus (Efficacy in %),Polygonum convolvulus; application rate 20 g/ha,100%
same,Setaria viridis (Efficacy in %),Setaria viridis [17]; application rate 20 g/ha,100%
same,Digitaria sanguinalis (Efficacy in %),Digitaria sanguinalis,100%
same,Hordeum murinum (Efficacy in %),Hordeum murinum,80%
same,Abutilon theophrasti (Efficacy in %),Abutilon theophrasti [18]; application rate 20 g/ha,100%
same,Viola tricolor (Efficacy in %),Viola tricolor [19]; application rate 20 g/ha,100%
CC(C)C(Sc1cc(-n2c(=O)cc(C(F)(F)F)n(C)c2=O)c(F)cc1Cl)C(=O)OCC1CCCO1 (stereo not drawn) [I.6-71],Triticum aestivum (Efficacy in %),Triticum aestivum,20%
same,Amaranthus retroflexus (Efficacy in %),Amaranthus retroflexus [20],100%
same,Alopecurus myosuroides (Efficacy in %),Alopecurus myosuroides [24],80%
same,Stellaria media (Efficacy in %),Stellaria media [21],100%
same,Pharbitis purpurea (Efficacy in %),Pharbitis purpurea [15]; application rate 20 g/ha,100%
same,Veronica persica (Efficacy in %),Veronica persica [22],100%
same,Echinochloa crus-galli (Efficacy in %),Echinochloa crus-galli [23],90%
same,Matricaria inodora (Efficacy in %),Matricaria inodora [16]; application rate 20 g/ha,100%
same,Polygonum convolvulus (Efficacy in %),Polygonum convolvulus; application rate 20 g/ha,100%
same,Setaria viridis (Efficacy in %),Setaria viridis [17]; application rate 20 g/ha,100%
same,Digitaria sanguinalis (Efficacy in %),Digitaria sanguinalis,100%
same,Hordeum murinum (Efficacy in %),Hordeum murinum,80%
same,Abutilon theophrasti (Efficacy in %),Abutilon theophrasti [18]; application rate 20 g/ha,100%
same,Viola tricolor (Efficacy in %),Viola tricolor [19]; application rate 20 g/ha,100%
